Results: patent US11708360B2, “N-substituted-dioxocyclobutenylamino-3-hydroxy-picolinamides useful as CCR6 inhibitors” (Pfizer Inc., priority 2018, dated 2023)
Where two headings read alike, the source gives them in different places.

How the values were obtained:
CCR6 = biological target: T1, CCR6 (Homo sapiens, UniProt P51684); assay: CCR6+ T Cell Chemotaxis Assay; assay type: cell-based; conditions: for T Cell Chemotaxis Selectivity: Table 13, T cell chemotaxis compared to neutrophil chemotaxis
T1 construct: Human CD4+CCR6+CXCR3-T cells were isolated from leukopak from healthy donors; endogenous in cells
T1 sequence (P51684 1-374): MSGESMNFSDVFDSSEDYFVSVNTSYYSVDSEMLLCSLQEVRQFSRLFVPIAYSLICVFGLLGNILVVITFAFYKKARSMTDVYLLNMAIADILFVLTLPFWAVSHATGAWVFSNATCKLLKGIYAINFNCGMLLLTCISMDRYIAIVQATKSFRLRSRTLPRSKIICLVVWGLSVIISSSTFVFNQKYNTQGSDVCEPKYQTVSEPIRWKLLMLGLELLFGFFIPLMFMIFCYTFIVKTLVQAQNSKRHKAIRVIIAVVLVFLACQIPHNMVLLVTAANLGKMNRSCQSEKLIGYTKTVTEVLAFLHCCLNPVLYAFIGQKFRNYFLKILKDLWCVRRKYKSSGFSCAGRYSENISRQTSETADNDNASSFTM
Text: Human CD4+CCR6+CXCR3-T cells were isolated from leukopak from healthy donors using EasySep™ Human Th17 Cell Enrichment Kit. […] Day 4 post activation, Dynabeads were removed from the culture. The activated T cells were maintained at 1-2×10^6 cells/mL for 15 days by feeding fresh growth media when needed.
For IC50 determination, the top and bottom of the chemotaxis chamber contained the same concentration of compound. DMSO was kept constant at 0.1% (v/v) in all wells. The final concentration of CCL20 (Peprotech 300-29A) in the bottom chamber is 0.5 nM. The fully assembled chemotaxis plate was placed in a cell culture incubator at 37° C., 5% CO2 for 1 h. After incubation, the top filter was removed, followed by a quick freeze of the bottom chamber at −80° C. for 1 h. The migrated cells in the bottom chamber were stained with CyQUANT dye (Life Technologies, C7026) for cell number determination.
IC50 values for compounds of the present invention (Table 11) were determined by the non-linear regression analysis of dose response curves.

CXCR2 = biological target: T2, CXCR2 (Homo sapiens, UniProt P25025); assay: Human Neutrophil Chemotaxis Assay; assay type: cell-based; parameters: Human neutrophils were purified from freshly drawn human whole blood; endogenous in cells; host or cells: primary human neutrophils from fresh whole blood
T2 sequence (P25025 1-360): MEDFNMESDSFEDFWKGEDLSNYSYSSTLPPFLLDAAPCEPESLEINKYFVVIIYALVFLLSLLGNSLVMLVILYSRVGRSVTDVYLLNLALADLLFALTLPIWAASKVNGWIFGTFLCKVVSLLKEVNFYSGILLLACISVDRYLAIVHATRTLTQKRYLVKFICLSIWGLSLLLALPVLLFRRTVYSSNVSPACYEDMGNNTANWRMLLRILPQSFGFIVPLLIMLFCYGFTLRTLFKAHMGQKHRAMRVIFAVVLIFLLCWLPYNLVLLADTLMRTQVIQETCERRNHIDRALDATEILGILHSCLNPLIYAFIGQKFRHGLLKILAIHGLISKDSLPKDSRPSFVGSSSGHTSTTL
Description: After 30 min, the labeled neutrophils were washed twice in chemotaxis buffer, resuspended as before and used immediately. For the assay, test compounds were tested in a dose-response format to determine IC50. Labeled neutrophils (50 μL) were pre-incubated with diluted test compound (50 μL) for 30 min in a 96-well plate (Greiner). Next, 100 μL of diluted compound was mixed with 100 μL of GROα (Peprotech #300-11, 2 nM) in the bottom portion of the chemotaxis chamber. The top portion (insert) of the chemotaxis system containing the FluoroBlok porous membrane was then assembled together. 50 μL of the pre-incubated neutrophils were added to the FluoroBlok insert (top portion) and chemotaxis measured by the neutrophils ability to migrate through the membrane towards the specific CXCR2 ligand, GROα.
IC50 values for compounds of the present invention (Table 12) were determined by the non-linear regression analysis of dose response curves.

[1] = Table 14, R = H, read-out: R = H, IC50 (nM) CCR6 T cell, CCL20 Chemotaxis
[2] = Table 14, R = H, read-out: R = H, IC50 (nM) CXCR2 Neutrophil, GROα Chemotaxis
[3] = Table 11, human CD4+CCR6+CXCR3- T cells, CCL20 0.5 nM in bottom chamber, 1 h at 37° C., read-out: IC50
[4] = NS = not selective for T cell chemotaxis compared to neutrophil chemotaxis
[5] = Table 12, human neutrophils migrating towards the CXCR2 ligand GROα, read-out: IC50

| Compound | IC50 (CCR6; [3]) [nM] | T Cell Chemotaxis Selectivity (CCR6; [4]) | IC50 (CXCR2; [5]) [nM] | other results |
| --- | --- | --- | --- | --- |
| Cc1nc([C@H](Nc2c(Nc3ccnc(C(=O)N(C)C)c3O)c(=O)c2=O)C2(C)CCCC2)cs1 [drawing 180 (R = H), reference compound] |  |  |  | R = H, T Cell Chemotaxis Selectivity (CCR6; Table 14, R = H, NS = not selective for T cell chemotaxis compared to neutrophil chemotaxis): 10.8; IC50 (CCR6; [1]): 32.1 nM; IC50 (CXCR2; [2]): 346 nM |
| Cc1nc([C@H](Nc2c(Nc3ccnc(C(=O)N(C)C)c3O)c(=O)c2=O)C(C)(C)C)c(C)s1 [Example 25, (R)-4-((2-((1-(2,5-Dimethylthiazol-4-yl)-2,2-dimethylpropyl)-amino)-3,4-dioxocyclobut-1-en-1-yl)amino)-3-hydroxy-N,N-dimethylpicolinamide] | 1.2 | 296 | 355 |  |
| Cc1nc([C@H](Nc2c(Nc3ccnc(C(=O)N(C)C)c3O)c(=O)c2=O)C2(C)CCCC2)c(C)o1 (single isomer, unassigned) [Example 34] | 24 | 104 | 2510 | R = CH3, T Cell Chemotaxis Selectivity (CCR6; Table 14, R = CH3): 104 |
| CCc1cn(C)nc1[C@H](Nc1c(Nc2ccnc(C(=O)N(C)C)c2O)c(=O)c1=O)C(C)(C)C [Example 27, (R)-4-((2-((1-(4-Ethyl-1-methyl-1H-pyrazol-3-yl)-2,2-dimethylpropyl)amino)-3,4-dioxocyclobut-1-en-1-yl)amino)-3-hydroxy-N,N-dimethylpicolinamide] | 13.2 | 4 | 52.6 |  |
| Cc1cn(C)nc1[C@H](Nc1c(Nc2ccnc(C(=O)N(C)C)c2O)c(=O)c1=O)C1(C)CCCC1 [Example 1, (R)-4-((2-(((1,4-Dimethyl-1H-pyrazol-3-yl)(1-methylcyclopentyl)methyl)amino)-3,4-dioxocyclobut-1-en-1-yl)amino)-3-hydroxy-N,N-dimethylpicolinamide] | 5.8 |  | 524 | IC50 (CCR6; Table 14, R = CH3, read-out: R = CH3, IC50 (nM) CCR6 T cell, CCL20 Chemotaxis): 5.8 nM; IC50 (CXCR2; Table 14, R = CH3, read-out: R = CH3, IC50 (nM) CXCR2 Neutrophil, GROα Chemotaxis): 524 nM |
| Cc1nc([C@H](Nc2c(Nc3ccnc(C(=O)N(C)C)c3O)c(=O)c2=O)C2(C)CCCC2)co1 [drawing 181 (R = H), reference compound] |  |  |  | IC50 (CCR6; [1]): 64.5 nM; IC50 (CXCR2; [2]): 12.2 nM |
| CCN(C)C(=O)c1nccc(Nc2c(N[C@@H](c3nn(C)cc3C#N)C3(C)CCCC3)c(=O)c2=O)c1O [Example 30, (R)-4-((2-(((4-Cyano-1-methyl-1H-pyrazol-3-yl)(1-methylcyclopentyl)methyl)amino)-3,4-dioxocyclobut-1-en-1-yl)amino)-N-ethyl-3-hydroxy-N-methylpicolinamide] | 96.1 | 42 | 4030 |  |
| CN(C)C(=O)c1nccc(Nc2c(N[C@@H](c3nn(C)cc3Cl)C3(C)CCCC3)c(=O)c2=O)c1O [Example 8, (R)-4-((2-(((4-Chloro-1-methyl-1H-pyrazol-3-yl)(1-methylcyclopentyl)methyl)amino)-3,4-dioxocyclobut-1-en-1-yl)amino)-3-hydroxy-N,N-dimethylpicolinamide] | 3 | 34 | 103 |  |
| Cc1cn(C)nc1[C@H](Nc1c(Nc2ccnc(C(=O)N(C)C)c2O)c(=O)c1=O)C1(C)CCC1 [Example 23, (R)-4-((2-(((1,4-Dimethyl-1H-pyrazol-3-yl)(1-methylcyclobutyl)methyl)amino)-3,4-dioxocyclobut-1-en-1-yl)amino)-3-hydroxy-N,N-dimethylpicolinamide] | 16.5 | 15 | 248 |  |
| Cc1nc([C@H](Nc2c(Nc3ccnc(C(=O)N(C)C)c3O)c(=O)c2=O)C2(C)CC2)c(C)s1 [Example 19, (R)-4-((2-(((2,5-Dimethylthiazol-4-yl)(1-methylcyclopropyl)-methyl)amino)-3,4-dioxocyclobut-1-en-1-yl)amino)-3-hydroxy-N,N-dimethylpicolinamide] | 70.6 | 3 | 197 |  |
| Cc1nc([C@H](Nc2c(Nc3ccnc(C(=O)N(C)C)c3O)c(=O)c2=O)C2(C)CCC2)c(C)s1 [Example 24, (R)-4-((2-(((2,5-Dimethylthiazol-4-yl)(1-methylcyclobutyl)-methyl)amino)-3,4-dioxocyclobut-1-en-1-yl)amino)-3-hydroxy-N,N-dimethylpicolinamide] | 3.1 | 325 | 1010 |  |
| CCc1cn(C)nc1[C@H](Nc1c(Nc2ccnc(C(=O)N(C)C)c2O)c(=O)c1=O)C1(C)CCC1 [Example 26, (R)-4-((2-(((4-Ethyl-1-methyl-1H-pyrazol-3-yl)(1-methylcyclobutyl)methyl)amino)-3,4-dioxocyclobut-1-en-1-yl)amino)-3-hydroxy-N,N-dimethylpicolinamide] | 3.3 | 43 | 142 |  |
| CN(C)C(=O)c1nccc(Nc2c(N[C@H](c3nn(C)cc3Cl)C3(C)CCCC3)c(=O)c2=O)c1O [Example 9, (S)-4-((2-(((4-Chloro-1-methyl-1H-pyrazol-3-yl)(1-methylcyclopentyl)methyl)amino)-3,4-dioxocyclobut-1-en-1-yl)amino)-3-hydroxy-N,N-dimethylpicolinamide] | 59.7 | 46 | 2750 |  |
| Cc1nc([C@H](Nc2c(Nc3ccnc(C(=O)N(C)C)c3O)c(=O)c2=O)[C@]2(C)CC(F)(F)CO2)c(C)s1 [Example 38, 4-((2-(((S)-((S)-4,4-Difluoro-2-methyltetrahydrofuran-2-yl) (2,5-dimethylthiazol-4-yl)methyl)amino)-3,4-dioxocyclobut-1-en-1-yl)amino)-3-hydroxy-N,N-dimethylpicolinamide] | 12.6 | 274 | 3460 |  |
| Cc1cn(C)nc1[C@H](Nc1c(Nc2ccnc(C(=O)N(C)C(C)C)c2O)c(=O)c1=O)C1(C)CCCC1 [Example 3, (R)-4-((2-(((1,4-Dimethyl-1H-pyrazol-3-yl)(1-methylcyclopentyl)methyl)amino)-3,4-dioxocyclobut-1-en-1-yl)amino)-3-hydroxy-N-isopropyl-N-methylpicolinamide] | 2.3 | 665 | 1530 |  |
| [2H]C([2H])([2H])c1cn(C)nc1[C@H](Nc1c(Nc2ccnc(C(=O)N(C)C)c2O)c(=O)c1=O)C1(C)CCCC1 (single isomer, unassigned) [Example 39] | 6.5 |  | 502 |  |
| CN(C)C(=O)c1nccc(Nc2c(N[C@@H](c3nn(C)cc3C#N)C3(C)CCCC3)c(=O)c2=O)c1O [Example 16, (R)-4-((2-(((4-Cyano-1-methyl-1H-pyrazol-3-yl)(1-methylcyclopentyl)methyl)amino)-3,4-dioxocyclobut-1-en-1-yl)amino)-3-hydroxy-N,N-dimethylpicolinamide] | 41.7 | 104 | 4350 |  |
